Assay results as given in US20240225984A9, “TOPICAL COMPOSITION FOR REGULATION OF INFLAMMATION AND SKIN REGENERATION” (Glycopep Therapeutics, S.A.S. de C.V., priority 2022, published 2024).

Columns and labels:
[1] = Viability of HaCaT human keratinocytes (mitochondrial metabolic activity, tetrazolium salts / MTT); settings: HaCaT cells (immortalized keratinocytes)
Procedure: (§1) We worked with HaCaT cells, an immortalized human keratinocyte cell line, which were cultured in DMEM medium supplemented (1 g/L glucose, 4 mM L-alanyl-glutamine, 10% inactivated fetal bovine serum, 50 IU/penicillin, 50 μg/ml streptomycin) at 37° C. and 5% CO2. Cells were worked between passages 3 to 7.
(§2) They were treated with 2.5 and 5% sialylated GMP, alone or combined with 0.5 and 1% panthenol for 0, 1, 2, 24 and 48 h. To define the percentage of viability of the cells with the different treatments at each of the times tested, cells not treated with either sialidinated GMP or panthenol were used as a control condition.
(§3) Once the time was up, cell viability was determined by measuring mitochondrial metabolic activity by spectrophotometric techniques and using tetrazolium salts.

[2] = tested on: HaCaT cells
Procedure: as §1, §2, §3

[3] = tested on: IL-1β; test: IL-1β/GAPDH mRNA expression in HaCaT keratinocytes with or without DNCB; assay type: cell-based, human; settings: without DNCB; FIG. 4
Source text: To verify that the composition of the present invention regulates the expression of genes associated with inflammation, the expression of IL-1β/GAPDH and Cox-2/GAPDH mRNA was quantified. When keratinocytes are exposed to IL-1β, they increase the levels of messenger RNA of other cytokines such as MIP-2, TNF-α, IL-10 and IL-1α. In this sense, the regulation of IL-1β is beneficial during inflammatory processes in the skin. The regulation of COX-2 is beneficial during inflammatory processes and wound regeneration.
Cells were worked between passages 3 to 7.
They were seeded in 6-well plates at a density of […] and incubated for 24 h at close to 20% confluency. After three days, 75% confluences were achieved.

| Compound | cytotoxicity at 1 % [1] | cytotoxicity at 2 h, 0.5 % [1] | cell viability [2] | expression level of IL-1β mRNA in relation to control cells [3] |
| --- | --- | --- | --- | --- |
| CC(C)(CO)[C@@H](O)C(=O)NCCCO [panthenol, Panthenol] | 30% | 30% | – | – |
| glycomacropeptide [GMP] | – | – | greater than 50% | decreased |
